Results as given in patent publication US20160367502A1, “FILM COATED PELLETS” (RATIOPHARM GMBH, priority 2012, published 2016).
Read-outs that look alike come from different tables or passages of the source.

Assay: Solubility in water at 25° C.
Assay type: physicochemical
Protocol: If it is not known, it can be determined by conventional methods. […] The amount or concentration of the active pharmaceutical ingredient in the solution is determined by analytical techniques known in the art.

[1] = sitagliptin salts, water, 25° C.

| Compound | Solubility of sitagliptin salts in water at 25° C. [1] | Solubility of sitagliptin salts in water at 25° C. |
| --- | --- | --- |
| N[C@@H](CC(=O)N1CCn2c(nnc2C(F)(F)F)C1)Cc1cc(F)c(F)cc1F.O=C[C@H](O)[C@@H](O)[C@H](O)[C@H](O)C(=O)O [D-Glucuronate, sitagliptin D-glucuronate] | >500 mg/mL |  |
| N[C@@H](CC(=O)N1CCn2c(nnc2C(F)(F)F)C1)Cc1cc(F)c(F)cc1F.O=P(O)(O)O [Dihydrogen phosphate, sitagliptin dihydrogen phosphate] | 100 to 120 mg/mL |  |
| sitagliptin glutarate |  | >500 mg/mL |
